The values that follow are results of earlier work, collected in article PMC11261124 (Poultry Science, 2024).

Data set [1] concerns HIV.
Data set [2] relates to HSV-2. To be noted: read-out: IC50 against HSV-2.

As to `COc1cn2c3ccccc3c3ccnc(c1=O)c32` [Drymaritin], the “anti-HIV activity IC50” value in data set [1] was 0.699 µg/mL. In general, IC50 refers to the concentration that inhibits the measured activity by half. Take `COc1ccc2c(c1)[nH]c1c(C)nccc12` [Harmine]: the IC50 in data set [2] is 1470 nM.
